For one experiment, the system named is human plasma. Kind of experiment: APTT (activated partial thromboplastin time), clotting time of human plasma in vitro. It is filed as biochemical. Conditions: pooled citrated human plasma; for APTT: concentration of compound to extend the normal APTT by 1.5×: 1.5× extension of clotting time; for APTT: degree of extension (ratio of clotting times in presence or absence of compound): at 100 nM compound. How it is done: Pooled citrated (0.38% trisodium citrate w/v) plasma was prepared from blood taken from healthy volunteers and stored at −70° C. The APTT tests were performed using a Thrombtrack 4 from Nycomed. Actin reagent (a reconstituted extract from dehydrated rabbit brain, also containing ellagic acid) was obtained from Baxter Healthcare Corporation USA. Briefly, citrated plasma was added to either compound or distilled water followed by addition of actin reagent. These were then mixed for 2 min at 37° C. before adding calcium chloride to initiate clotting. Compounds extended the normal clotting time, which is in the range 30-35 seconds, to varying degrees depending on their concentrations. The degrees of extension of the APTT was calculated by the ratio of clotting times in presence or absence of compound. The concentration of a compound to extend the ‘normal’ APTT by 1.5× was used as a criterion for comparing the anti-coagulant activities of compounds.

A further experiment addresses human α-thrombin (Homo sapiens, UniProt P00734). Kind of experiment: Thrombin inhibitory activity, chromogenic assay. It is filed as biochemical. To be noted: substrate N-p-tosyl-gly-pro-lys p-nitroanilide 100 μM, thrombin 1 nM, pH 7.4, room temperature. The procedure: All dilutions were made in a buffer consisting of: 50 mM HEPES, 150 mM NaCl, 5 mM CaCl2, 0.1% PEG and at pH 7.4. Briefly, the substrate (final conc. of 100 μM) was added to thrombin (final conc. of 1 nM) and the reaction monitored for 10 mins at 405 nm using a Biotek EL340 plate reader; the assay was performed at room temperature. To obtain IC50s the data were analyzed using Kineticalc™ and processed using ActivityBase™ to obtain the IC50 value.

As for `Cc1cc(OC[C@H](C)Nc2ccncc2)cc(C(=O)N(C(C)C)C(C)C)c1` [Example 2, N,N-Diisopropyl-3-methyl-5-[2S-(pyridin-4-ylamino)-propoxy]-benzamide], in the experiment with human plasma, the “APTT: concentration of compound to extend the normal APTT by 1.5×” value (“APTT: concentration of compound” below) is 80 (1.5×) nM. At human α-thrombin, this molecule returned a half-inhibitory concentration (IC50) of less than 1 nM.

Regarding `CCCN(CCC)C(=O)c1cc(C)cc(OC[C@H](C)Nc2ccncc2)c1` [Example 5, 3-Methyl-N,N-dipropyl-5-[2S-(pyridin-4-ylamino)-propoxy]-benzamide], in the experiment on human plasma, the “APTT: concentration of compound” value was 110 (1.5×) nM. This molecule showed an IC50 against human α-thrombin of less than 1 nM.

Turning to `CCN(C(=O)c1cc(C)cc(OC[C@H](C)Nc2ccncc2)c1)C(C)C` [Example 1, N-Ethyl-N-isopropyl-3-methyl-5-[2S-(pyridin-4-ylamino)-propoxy]-benzamide], in the experiment on human plasma, the “APTT: concentration of compound” value is 40 (1.5×) nM. For the same molecule, the IC50 against human α-thrombin is less than 1 nM.

Take `CCCCN(CCC)C(=O)c1cc(C)cc(OC[C@H](C)Nc2ccncc2)c1` [Example 7, N-Butyl-3-methyl-N-propyl-5-[2S-(pyridin-4-ylamino)-propoxy]-benzamide]: the “APTT: degree of extension (ratio of clotting times in presence or absence of compound)” value in the experiment on human plasma is 100 (1.31×). Further, on human α-thrombin, the 50% inhibitory concentration (IC50) is less than 1 nM.

For `CCC(COc1cc(Cl)cc(C(=O)N(C(C)C)C(C)C)c1)Nc1ccncc1.Cl` (stereo not shown) [Example 11, 3-Chloro-N,N-diisopropyl-5-[2-(pyridin-4-ylamino)-butoxy]-benzamide hydrochloride], the “APTT: concentration of compound” value in the experiment with human plasma is 650 (1.5×) nM. Moreover, at human α-thrombin, the half-maximal inhibitory concentration (IC50) was determined as 26 nM.

Turning to `Cc1cc(OC[C@H](C)Nc2ccncc2)cc(C(=O)N(C(C)C)C2CCCCC2)c1` [Example 8, N-Cyclohexyl-N-isopropyl-3-methyl-5-[2S-(pyridin-4-ylamino)-propoxy]-benzamide], the “APTT: degree of extension (ratio of clotting times in presence or absence of compound)” value with human plasma was 100 (1.32×). The IC50 on human α-thrombin was less than 1 nM.

For `CCCN(CC)C(=O)c1cc(C)cc(OC[C@H](C)Nc2ccncc2)c1` [Example 6, N-Ethyl-3-methyl-N-propyl-5-[2S-(pyridin-4-ylamino)-propoxy]-benzamide], in the experiment on human plasma, the “APTT: concentration of compound” value is 120 (1.5×) nM. Further, it took 1.5 nM to reach half-maximal inhibition against human α-thrombin (IC50).

Take `Cc1cc(OC[C@H](C)Nc2ccncc2)cc(C(=O)N(C)C(C)C)c1` [Example 3, N-Isopropyl-3,N-dimethyl-5-[2S-(pyridin-4-ylamino)-propoxy]-benzamide]: the “APTT: concentration of compound” value in the experiment on human plasma was 90 (1.5×) nM. Further, at human α-thrombin, the midpoint of inhibition, the IC50, lay at 3 nM.

As to `CCCN(C(=O)c1cc(C)cc(OC[C@H](C)Nc2ccncc2)c1)C(C)C` [Example 9, N-Isopropyl-3-methyl-N-propyl-5-[2S-(pyridin-4-ylamino)-propoxy]-benzamide], the “APTT: concentration of compound” value in the experiment with human plasma was 60 (1.5×) nM. This molecule came in with a half-maximal inhibitory concentration (IC50) at human α-thrombin of less than 1 nM.

Take `CCCN(C(=O)c1cc(Cl)cc(OC[C@H](C)Nc2ccncc2)c1)C(C)C` [Example 10, 3-Chloro-N-isopropyl-N-propyl-5-[2S-(pyridin-4-ylamino)-propoxy]-benzamide]: in the experiment with human plasma, the “APTT: degree of extension (ratio of clotting times in presence or absence of compound)” value is 100 (1.28×). In addition, on human α-thrombin, the 50% inhibitory concentration (IC50) amounted to 3.4 nM.

On to `CCCN(C)C(=O)c1cc(C)cc(OC[C@H](C)Nc2ccncc2)c1` [Example 4, 3,N-Dimethyl-N-propyl-5-[2S-(pyridin-4-ylamino)-propoxy]-benzamide], for which, in the experiment on human plasma, the “APTT: concentration of compound” value is 97 (1.5×) nM. Moreover, it took 5 nM to reach half-maximal inhibition against human α-thrombin (IC50).

For the origin of these results see US6670381B2, “Benzamide derivatives as thrombin inhibitors” (SmithKline Beecham Corporation, priority 1998, dated 2003).
